Where two headings read alike, the source gives them in different places.
Columns and labels:
[1] = molecular target: human brain AChE (HuAChE); conditions: cited from earlier work
AChE [2] = conditions: cited from earlier work
[3] = molecular target: AChE from Torpedo californica (TcAChE); conditions: cited from earlier work
AChE [4] = conditions: in vivo, rats, mice and rabbits; cited from earlier work
TcAChE = molecular target: T1, TcAChE (Tetronarce californica, UniProt P04058); assay: Pre-steady-state analysis by global fitting of full progress curves (ENZO); type: biochemical, Torpedo californica
T1 construct: TcAChE was isolated and purified as previously described; from tissue
T1 sequence (P04058 22-586): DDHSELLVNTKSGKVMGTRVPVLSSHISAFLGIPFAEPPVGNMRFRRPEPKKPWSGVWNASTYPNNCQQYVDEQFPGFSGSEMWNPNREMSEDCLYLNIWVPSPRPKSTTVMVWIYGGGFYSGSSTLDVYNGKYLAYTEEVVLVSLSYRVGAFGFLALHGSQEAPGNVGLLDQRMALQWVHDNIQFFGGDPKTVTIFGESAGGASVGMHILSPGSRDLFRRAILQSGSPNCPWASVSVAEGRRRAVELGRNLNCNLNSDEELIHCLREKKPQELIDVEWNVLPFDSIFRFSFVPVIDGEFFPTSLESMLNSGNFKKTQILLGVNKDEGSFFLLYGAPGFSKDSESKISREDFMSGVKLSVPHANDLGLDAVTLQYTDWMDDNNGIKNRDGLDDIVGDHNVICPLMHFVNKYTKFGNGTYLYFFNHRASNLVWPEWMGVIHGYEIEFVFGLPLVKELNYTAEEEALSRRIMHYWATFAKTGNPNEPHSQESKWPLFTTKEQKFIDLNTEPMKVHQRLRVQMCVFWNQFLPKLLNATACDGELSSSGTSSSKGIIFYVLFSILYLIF

Row | SMILES | Ki ([1]; human brain AChE, competitive inhibition, 1976) | Ki ([1]; recombinant form of HuAChE, 2003) | IC50 (AChE [2]; highest of 15 BRENDA entries) | IC50 (AChE [2]; lowest of 15 BRENDA entries) | Ki [3] | times weaker AChE inhibitor than donepezil (AChE [4]) | Ki (TcAChE; TcAChE 200 pM, ATCh 35 µM, initial thiocholine-TNB 0 to ~150 µM, competitive, read-out: Ki for product inhibition) | inhibition mechanism (TcAChE; fit of full progress curves)
1 | COc1ccc2c3c1O[C@H]1C[C@@H](O)C=C[C@@]31CCN(C)C2 [GAL, galantamine] | 52 nM | 520 nM | […] | […] | 200 nM | […] | – | –
2 | C[N+](C)(C)CCSSc1ccc([N+](=O)[O-])c(C(=O)[O-])c1 [thiocholine-TNB, thiocholine-thionitrobenzoic acid] | – | – | – | – | – | – | 21500 ± 380 nM | competitive inhibition mechanism

Source: article PMC9105972 (International Journal of Molecular Sciences, 2022)
